We go through two molecules from US20180346505A1, “MONONUCLEOTIDES HAVING A BIOREVERSIBLE DISULFIDE GROUP” (priority 2014, published 2018).

In series [1] the test system is GT1b C316N NS5B mutant replicon. The experiment in a line: HCV NS5B mutant replicon assay, GT1b C316N. The following applies: Hepatitis C virus, Huh-7, 72 h, read-out: GT1b C316N EC50. Type of series: cell-based. The procedure:
(§1) The antiviral activity of the test compounds was assessed in the wild type GT1b (Con1), GT1a (H77), and GT1b/2a, GT1b/3a, GT1b/4a and GT1b/5a NS5B chimeric replicons, as well as the NS5B mutant replicons listed in Table 2a and 2b.
(§2) The HCV replicon mutants were generated by site-directed mutagenesis (SDM). The SDM was performed by PCR and the PCR fragments were inserted into the backbone replicon construct. The inserted PCR fragments and the mutants were confirmed by sequencing.
(§3) All the replicon assays were luciferase based in Huh-7 cells, either in stable format (GT1b and GT1a) or by transient transfection by electroporation (chimeric and mutant replicons). For a standard HCV replicon assay, stable or transiently transfected Huh-7 cells were seeded in 96-well plates (5,000 cells/well), cultured in DMEM containing 10% FBS, and incubated at 37° C., 5% CO2. On the following day, test compounds were diluted with assay media and added to the appropriate wells (final DMSO concentration in the cell culture medium was 0.5%). Assay reference positive control was included in each run to ensure assay performance. Cells were incubated at 37° C., 5% CO2 for 72 hours, at which time the cells were still sub-confluent. The antiviral activity was determined by measuring replicon reporter firefly luciferase activity using Bright Glo kit in accordance with the protocol provided by the supplier (Promega). The toxicity of the test compounds was assessed by CytoTox-1 cell proliferation assay (Promega). The half maximal effective concentration (EC50) and the half maximal toxic concentration (TC50) values were calculated using the GraphPad Prism software.
(In general: In antiviral work, replicon cells carry a viral genome segment that copies itself.)

The subject of series [2] is GT1a S282T NS5B mutant replicon. The experiment in a line: HCV NS5B mutant replicon assay, GT1a S282T. The settings on record: Hepatitis C virus, Huh-7, 72 h, read-out: GT1a S282T EC50. In kind it is cell-based. The procedure: as §1, §2, §3
For series [3], the system named is GT1a (H77) HCV replicon. The experiment in a line: HCV replicon assay, wild type GT1a (H77), luciferase based, stable format. In kind it is cell-based, hepatitis C virus. The settings on record: Hepatitis C virus, GT1A, Huh-7, 72 h, Huh-7 cells. The procedure:
as §1, §3

In series [4] the test system is GT3a S282T NS5B mutant replicon. The experiment in a line: HCV NS5B mutant replicon assay, GT3a S282T. Type of series: cell-based. The following applies: Hepatitis C virus, Huh-7, 72 h, read-out: GT3a S282T EC50. The procedure: as §1
(§4) To generate HCV NS5B chimeric replicons, the GT1 b replicon was used as a backbone with the NS5B gene replaced with the NS5B gene of GT2a, GT3a, GT4a and GT5a derived from clinical isolates. These NS5B genes were cloned into the GT1b backbone and were confirmed by sequencing.
as §2, §3

Series [5] deals with GT1b S96T NS5B mutant replicon. The experiment in a line: HCV NS5B mutant replicon assay, GT1b S96T. In kind it is cell-based. The following applies: Hepatitis C virus, Huh-7, 72 h, read-out: GT1b S96T EC50. The procedure: as §1, §2, §3
In series [6] the test system is GT3a V321A NS5B mutant replicon. The experiment in a line: HCV NS5B mutant replicon assay, GT3a V321A. In kind it is cell-based. The settings on record: Hepatitis C virus, Huh-7, 72 h, read-out: GT3a V321A EC50. Here is the method:
as §1, §4, §2, §3

Series [7] in a line: Nucleoside phosphoester stability in fetal bovine serum. Type of series: in vitro ADME. The settings on record: 100 μM, 37° C. The procedure:
In another test, mononucleotide stock solutions were prepared at 10 mM in DMSO, and 10 μL of each stock solution was added to 1 mL of fetal bovine serum (FBS) to provide 100 μM of final compound concentration. These samples incubated for 24 h in a 37° C. water bath and 100 μL aliquots removed at t=0, 1, 2, 4, 6 and 24 hours. Individual samples were precipitated with 200 μL cold acetonitrile, the debris was pelleted at 14K RPM for 30 min at 4° C., and the supernatant was removed and subjected to LCMS analysis as described below.
Mobile phase A: 95:5 H2O:acetonitrile, 10 mM ammonium acetate, 0.01% formic acid
Mobile phase B: 95:5 acetonitrile:H2O, 10 mM ammonium acetate, 0.01% formic acid
Extracted ion chromatograms generated using M+1H and ammonium adduct for each compound.

For the molecule `CC(C)OC(=O)[C@H](C)N[P@](=O)(OC[C@H]1O[C@@H](n2ccc(=O)[nH]c2=O)[C@](C)(F)[C@@H]1O)Oc1ccccc1` [sofosbuvir, reference compound], the EC50 in series [1] was 25 nM; in series [2] it was 194 to 694 nM; in series [3], 40 to 61 nM; in series [4], 84 to 572 nM; in series [5], 62 to 314 nM; in series [6], 166 nM. Further, the “% t = 0” value came to 100.0% in series [7] (0 hours); 96.2% in series [7] (1 hour); 96.5% in series [7] (2 hours); 89.0% in series [7] (4 hours); 91.6% in series [7] (6 hours); 102.2% in series [7] (24 hours).
Turning to `CC(C)(C)SSc1ccccc1CCOP1(=O)OC[C@H]2O[C@@H](n3ccc(=O)[nH]c3=O)[C@](C)(F)[C@@H]2O1` (single isomer, unassigned) [Compound 7A], the EC50 in series [1] was 9 nM; in series [2], 60 nM; in series [3], 5 to 8 nM; in series [4], 44 nM; in series [5], 8 nM; in series [6], 12 nM. Besides, the “% t = 0” value in series [7] (0 hours) came out at 100.0%; in series [7] (1 hour), 101.0%; in series [7] (2 hours), 101.0%; in series [7] (4 hours) it was 100.9%; in series [7] (6 hours) it was 92.5%; in series [7] (24 hours) it was 87.9%.

Usually EC50 stands for the midpoint of the concentration-response curve.
